Assay results as given in patent publication US8946439B2, “Amide compounds, compositions and uses thereof” (Evotec AG, priority 2008, dated 2015).

Legend:
[1] = target: T1, hP2X3 (Homo sapiens, UniProt P56373); test: Calcium uptake assay (P2X antagonist assay), P2X3 homomer; type: cell-based; details: Ca influx (calcium uptake assay), hP2X3; read-out: IC50 hP2X3
T1 construct: expressed in transfected cells; host or cells: e.g. HEK293 or 1321N1
T1 sequence (P56373 1-397): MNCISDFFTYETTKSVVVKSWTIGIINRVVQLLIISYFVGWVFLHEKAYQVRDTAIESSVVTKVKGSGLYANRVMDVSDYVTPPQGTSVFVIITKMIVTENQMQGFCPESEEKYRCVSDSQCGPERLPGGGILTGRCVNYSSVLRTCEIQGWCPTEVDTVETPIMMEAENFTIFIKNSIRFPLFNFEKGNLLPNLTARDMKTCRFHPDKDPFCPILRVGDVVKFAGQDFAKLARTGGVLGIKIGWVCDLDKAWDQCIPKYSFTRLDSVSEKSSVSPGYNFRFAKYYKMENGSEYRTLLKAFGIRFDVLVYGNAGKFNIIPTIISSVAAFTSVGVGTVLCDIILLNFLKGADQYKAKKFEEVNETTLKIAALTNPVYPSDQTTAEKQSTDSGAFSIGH
In short: (§1)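 Stably or transiently transfected HEK293 or 1321N1 cells; the heteromer is made by adding P2X3 to a P2X2-stable line, with heteromer function isolated pharmacologically. The peak-minus-baseline FLIPR calcium signal gives % inhibition and a 4-parameter-logistic IC50.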

[2] = target: T2, hP2X2/3H (Homo sapiens, UniProt P56373+Q9UBL9); test: Calcium uptake assay (P2X antagonist assay), P2X2/3 heteromer; type: cell-based; details: Ca influx (calcium uptake assay), hP2X2/3H; read-out: IC50 hP2X2/3H
T2 construct: expressed in transfected cells; host or cells: e.g. HEK293 or 1321N1
T2 sequence (Q9UBL9 1-471): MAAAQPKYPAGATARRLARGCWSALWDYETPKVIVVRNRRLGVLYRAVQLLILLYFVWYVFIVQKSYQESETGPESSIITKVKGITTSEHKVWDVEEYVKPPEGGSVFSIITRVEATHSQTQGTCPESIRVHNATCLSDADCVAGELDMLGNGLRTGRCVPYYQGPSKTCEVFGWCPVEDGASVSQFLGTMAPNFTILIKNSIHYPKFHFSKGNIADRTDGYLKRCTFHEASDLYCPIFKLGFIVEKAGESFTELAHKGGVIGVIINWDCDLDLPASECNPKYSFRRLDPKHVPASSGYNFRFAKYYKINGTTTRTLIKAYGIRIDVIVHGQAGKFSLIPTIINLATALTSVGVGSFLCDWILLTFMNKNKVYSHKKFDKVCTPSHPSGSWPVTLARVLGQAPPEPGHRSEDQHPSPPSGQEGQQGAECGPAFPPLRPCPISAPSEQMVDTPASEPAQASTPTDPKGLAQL
T2 sequence (P56373 1-397): T1 sequence (P56373 1-397)
In short: as §1

Row | Compound | IC50 [1] | IC50 [2]
1 | Cc1ccc(-c2cc(C(=O)N[C@H](C)c3cnc(C)nc3)cc(S(=O)(=O)C(C)C)c2)cc1 [Compound 198] | < 100 nM | < 100 nM
2 | Cc1ccc(-c2cc(C(=O)NCc3ccc(C)nc3)cc(S(=O)(=O)C(C)C)c2)cc1 [Compound 199] | < 100 nM | < 100 nM
3 | Cc1ccc(CNC(=O)c2cc(C(=O)N3CCCC3)cc(-c3ccc(Br)cc3)c2)cn1 [Compound 200, 4′-Bromo-N-((6-methylpyridin-3-yl)methyl)-5-(pyrrolidine-1-carbonyl)biphenyl-3-carboxamide] | < 100 nM | < 100 nM
4 | Cc1ccc(-c2cc(C(=O)NCc3cnc(C)nc3)cc(S(=O)(=O)C(C)C)c2)cc1 [Compound 201] | < 100 nM | < 100 nM
5 | Cc1ccc(-c2cc(C(=O)NCc3ccc(C)nc3)cc(C(F)(F)F)c2)nc1 [Compound 202] | 100 to 500 nM | > 1000 nM
6 | [2H]C([2H])([2H])c1ccc(-c2cc(C(=O)NCc3ccc(C)nc3)cc(C(=O)N3CCCC3)c2)cc1 [Compound 203, 4′-Methyl-d3-N-((6-methylpyridin-3-yl)methyl)-5-(pyrrolidine-1-carbonyl)biphenyl-3-carboxamide] | < 100 nM | < 100 nM
7 | Cc1ccc(-c2cc(C(=O)NCc3ccc(C)nc3)cc(C(F)(F)F)c2)cc1 [Compound 204] | > 1000 nM | 501 to 1000 nM
8 | Cc1ccc(-c2cc(C(=O)N[C@H](CCO)c3ccc(C)nc3)cc(S(C)(=O)=O)c2)cc1 [Compound 205] | < 100 nM | < 100 nM
9 | COc1ccc([C@@H](CO)NC(=O)c2cc(-c3ccc(C)cc3)cc(S(C)(=O)=O)c2)cn1 [Compound 206, (S)—N-(2-Hydroxy-1-(6-methoxypyridin-3-yl)ethyl)-4′-methyl-5-(methylsulfonyl)biphenyl-3-carboxamide] | < 100 nM | < 100 nM
10 | Cc1ccc(-c2cc(C(=O)N[C@H](CO)c3ccc(C(F)F)nc3)cc(S(C)(=O)=O)c2)cc1 [Compound 207] | < 100 nM | < 100 nM
11 | Cc1ccc(-c2cc(C(=O)NCc3ccc(C)[n+]([O-])c3)cc(C(O)CN3CCCC3)c2)cc1 (stereo not drawn) [Compound 208] | < 100 nM | 100 to 500 nM
12 | CCS(=O)(=O)c1cc(C(=O)N[C@H](C)c2ccc(C)nc2)cc(-c2ccc(C)cc2)c1 [Compound 209] | < 100 nM | < 100 nM
13 | CCS(=O)(=O)c1cc(C(=O)N[C@H](C)c2cnc(C)nc2)cc(-c2ccc(C)cc2)c1 [Compound 210] | < 100 nM | < 100 nM
14 | CCS(=O)(=O)c1cc(C(=O)NCc2ccc(C)nc2)cc(-c2ccc(C)cc2)c1 [Compound 211] | < 100 nM | < 100 nM
15 | CCS(=O)(=O)c1cc(C(=O)NCc2cnc(C)nc2)cc(-c2ccc(C)cc2)c1 [Compound 212] | < 100 nM | < 100 nM
16 | Cc1ccc(-c2cc(C(=O)NC(c3ccc(C)nc3)C(F)(F)F)cc(S(C)(=O)=O)c2)cc1 (stereo not drawn) [Compound 213] | > 1000 nM | > 1000 nM
17 | Cc1ccc(-c2cc(C(=O)NC(c3ccc(C)nc3)C(F)(F)F)cc(C(=O)N3CCCC3)c2)cc1 (stereo not drawn) [Compound 214] | > 1000 nM | > 1000 nM
18 | Cc1ncc(CNC(=O)c2cc(C(=O)N3CCCC3)cc(-c3ccc(Br)cc3)c2)cn1 [Compound 215] | < 100 nM | 100 to 500 nM
19 | Cc1ncc([C@@H](C)NC(=O)c2cc(C(=O)N3CCCC3)cc(-c3ccc(Br)cc3)c2)cn1 [Compound 216] | < 100 nM | < 100 nM
20 | Cc1ccc([C@@H](C)NC(=O)c2cc(C(=O)N3CCCC3)cc(-c3ccc(Br)cc3)c2)cn1 [Compound 217] | < 100 nM | < 100 nM
21 | Cc1ccc(-c2cc(C(=O)N[C@H](C)c3ccc(C)nc3)cc(S(=O)(=O)C3CCCC3)c2)cc1 [Compound 218] | < 100 nM | < 100 nM

Row | Compound | IC50 [1] | IC50 [2]
22 | Cc1ccc(-c2cc(C(=O)N[C@H](C)c3cnc(C)nc3)cc(S(=O)(=O)C3CCCC3)c2)cc1 [Compound 219, (R)-5-(Cyclopentylsulfonyl)-4′-methyl-N-(1-(2-methylpyrimidin-5-yl)ethyl)biphenyl-3-carboxamide] | < 100 nM | < 100 nM
23 | Cc1ccc(-c2cc(OC(F)(F)F)cc(C(=O)NCc3ccc(C)nc3)c2)nc1 [Compound 220, 3-(5-Methylpyridin-2-yl)-N-((6-methylpyridin-3-yl)methyl)-5-(trifluoromethoxy)benzamide] | 100 to 500 nM | > 1000 nM
24 | Cc1ccc(-c2cc(C(=O)N[C@H](CO)c3cnc(C)nc3)cc(S(C)(=O)=O)c2)cc1 [Compound 221, (S)—N-(2-Hydroxy-1-(2-methylpyrimidin-5-yl)ethyl)-4′-methyl-5-(methylsulfonyl)biphenyl-3-carboxamide] | < 100 nM | < 100 nM
25 | COc1ccc([C@@H](CCO)NC(=O)c2cc(-c3ccc(C)cc3)cc(S(C)(=O)=O)c2)cn1 [Compound 222] | < 100 nM | < 100 nM
26 | Cc1ccc(-c2cc(C(=O)N[C@H](CCO)c3ccc(C(F)(F)F)nc3)cc(S(C)(=O)=O)c2)cc1 [Compound 223] | < 100 nM | 100 to 500 nM
27 | Cc1ccc(-c2cc(C(=O)NCc3ccc(C)[n+]([O-])c3)cc(C(=O)N3CCCC3)c2)cc1 [Compound 224, 2-Methyl-5-((4′-methyl-5-(pyrrolidine-1-carbonyl)biphenyl-3-ylcarboxamido)methyl)pyridine 1-oxide] | < 100 nM | < 100 nM
28 | COc1cc(C(=O)N[C@H](C)c2cnc(C)nc2)cc(-c2ccc(C)cn2)c1 [Compound 225, (R)-3-Methoxy-5-(5-methylpyridin-2-yl)-N-(1-(2-methylpyrimidin-5-yl)ethyl)benzamide] | < 100 nM | 100 to 500 nM
29 | Cc1ccc(-c2cc(C(=O)N[C@H](CO)c3ccc(C(F)(F)F)nc3)cc(S(C)(=O)=O)c2)cc1 [Compound 226] | < 100 nM | 100 to 500 nM
30 | Cc1ccc(-c2cc(C(=O)N[C@H](C)c3ccc(C)nc3)cc(C(O)c3ccccc3)c2)cc1 (stereo partly drawn) [Compound 227, 5-(Hydroxy(phenyl)methyl)-4′-methyl-N—((R)-1-(6-methylpyridin-3-yl)ethyl)biphenyl-3-carboxamide] | 100 to 500 nM | < 100 nM
31 | Cc1ccc(-c2cc(C(=O)NCc3ccc(C)nc3)cc(C(O)c3ccccc3)c2)cc1 (stereo not drawn) [Compound 228] | 100 to 500 nM | 100 to 500 nM
32 | Cc1ccc(-c2cc(C(=O)N[C@H](C)c3ccc(C)nc3)cc(C(=O)c3ccccc3)c2)cc1 [Compound 229, (R)-5-Benzoyl-4′-methyl-N-(1-(6-methylpyridin-3-yl)ethyl)biphenyl-3-carboxamide] | 100 to 500 nM | < 100 nM
33 | Cc1ccc(-c2cc(C(=O)NCc3ccc(C)nc3)cc(C(O)CN3CCCC3)c2)cc1 (stereo not drawn) [Compound 230] | < 100 nM | 100 to 500 nM
34 | Cc1ccc(-c2cc(C(=O)NCc3cnc4[nH]ccc4c3)cc(C(=O)N3CCCC3)c2)cc1 [Compound 231] | > 1000 nM | > 1000 nM
35 | Cc1ccc(-c2cc(Oc3ncccn3)cc(C(=O)N[C@H](C)c3ccc(C)nc3)c2)cc1 [Compound 232, (R)-4′-Methyl-N-(1-(6-methylpyridin-3-yl)ethyl)-5-(pyrimidin-2-yloxy)biphenyl-3-carboxamide] | < 100 nM | < 100 nM
36 | Cc1ccc(-c2cc(Oc3ncccn3)cc(C(=O)NCc3ccc(C)nc3)c2)cc1 [Compound 233] | 100 to 500 nM | 100 to 500 nM
37 | Cc1ccc(-c2cc(Oc3ncccn3)cc(C(=O)NCc3cnc(C)nc3)c2)cc1 [Compound 234] | 100 to 500 nM | 501 to 1000 nM
38 | Cc1ccc(-c2cc(Oc3ncccn3)cc(C(=O)N[C@H](C)c3cnc(C)nc3)c2)cc1 [Compound 235] | < 100 nM | 100 to 500 nM
39 | Cc1ccc(-c2cc(Oc3nccs3)cc(C(=O)N[C@H](C)c3cnc(C)nc3)c2)cc1 [Compound 236, (R)-4′-Methyl-N-(1-(2-methylpyrimidin-5-yl)ethyl)-5-(thiazol-2-yloxy)biphenyl-3-carboxamide] | < 100 nM | < 100 nM
40 | Cc1ccc(-c2cc(Oc3nccs3)cc(C(=O)NCc3cnc(C)nc3)c2)cc1 [Compound 237] | < 100 nM | 100 to 500 nM
41 | Cc1ccc(-c2cc(Oc3nccs3)cc(C(=O)NCc3ccc(C)nc3)c2)cc1 [Compound 238] | 100 to 500 nM | 100 to 500 nM
42 | Cc1ccc(-c2cc(Oc3nccs3)cc(C(=O)N[C@H](C)c3ccc(C)nc3)c2)cc1 [Compound 239] | < 100 nM | < 100 nM
